pKi: −log10 of the molar value.
Each compound was assayed against human RIP1 kinase domain (2-375) (Homo sapiens (Human), UniProt Q13546) (assay: RIP1 kinase inhibition assay (Transcreener ADP biochemical enzyme assay)). Settings: Ki app (Morrison tight-binding fit); 50 nM enzyme, 50 uM ATP, 2 hours incubation, fluorescence polarization.
Method: RIP1 Kinase Inhibition Assays (Biochemical Assay):
The compounds of the present invention were tested for their capacity to inhibit RIP K activity as described below.
Enzyme assay: The ability of the receptor interacting protein kinase (RIPK1) to catalyze the hydrolysis of adenosine-5′-triphosphate (ATP) is monitored using the Transcreener ADP (adenosine-5′-diphosphate) assay (BellBrook Labs). Purified human RIP1 kinase domain (2-375) (50 nM) derived from a baculovirus-infected insect cell expression system is incubated with test compounds for 2 hours in 50 mM Hepes buffer (pH 7.5) containing 30 mM MgCl2, 1 mM dithiothreitol, 50 uM ATP, 0.002% Brij-35, and 0.5% dimethyl sulfoxide (DMSO). Reactions are quenched by the addition of 1× Bell Brooks Stop buffer B (20 mM Hepes (ph7.5), 40 mM ethylenediaminetetraacetic acid and 0.02% Brij-35) containing an additional 12 mM EDTA and 55 ug/mL ADP2 antibody and 4 nM ADP-AlexaFluor® 633 tracer. The tracer bound to the antibody is displaced by the ADP generated during the RIP1K reaction, which causes a decrease in fluorescence polarization that is measured by laser excitation at 633 nm with a FP microplate reader M1000. Fractional activity was plotted against test article concentration. Using Genedata Screener software (Genedata; Basel, Switzerland), the data were fit to the tight-binding apparent inhibition constant (Ki^app) Morrison equation [Williams, J. W. and Morrison, J. F. (1979) The kinetics of reversible tight-binding inhibition. Methods Enzymol 63: 437-67]. The following equation was used to calculate fractional activity and Ki^app:
[formula] where [E]T and [I]T are the total concentrations of active enzyme and test article, respectively.

human RIP1 kinase domain (2-375), sequence (Q13546 2-375): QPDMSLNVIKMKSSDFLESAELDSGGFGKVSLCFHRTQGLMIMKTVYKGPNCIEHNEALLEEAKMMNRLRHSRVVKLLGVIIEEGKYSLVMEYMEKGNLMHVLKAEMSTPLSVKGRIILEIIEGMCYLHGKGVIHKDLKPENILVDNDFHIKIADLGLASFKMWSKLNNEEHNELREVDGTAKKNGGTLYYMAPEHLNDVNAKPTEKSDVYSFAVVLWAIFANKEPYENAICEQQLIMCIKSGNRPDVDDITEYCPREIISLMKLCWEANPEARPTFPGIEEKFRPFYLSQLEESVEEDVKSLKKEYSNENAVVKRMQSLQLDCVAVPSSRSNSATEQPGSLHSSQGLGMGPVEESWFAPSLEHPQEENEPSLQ

Row | Structure (SMILES) | pKi
1 | O=C(c1nc2n(n1)C(c1ccccc1)CC2(F)F)N1CC(F)(F)C1 (racemic) [Example 1, (3,3-difluoroazetidin-1-yl)-(7,7-difluoro-5-phenyl-5,6-dihydropyrrolo[1,2-b][1,2,4]triazol-2-yl)methanone] | 7.24
2 | O=C(c1nc2n(n1)[C@@H](c1ccccc1)C[C@@H]2F)N1CC(F)(F)C1 (racemic) [Example 2, (3,3-difluoroazetidin-1-yl)-[rac-(5R,7S)-7-fluoro-5-phenyl-6,7-dihydro-5H-pyrrolo[1,2-b][1,2,4]triazol-2-yl]methanone] | 6.32
3 | O=C(c1nc2n(n1)CCC2c1ccccc1)N1CC(F)(F)C1 (racemic) [Example 4, (3,3-difluoroazetidin-1-yl)-(7-phenyl-6,7-dihydro-5H-pyrrolo[1,2-b][1,2,4]triazol-2-yl)methanone] | 6.69
4 | O=C(c1nc2n(n1)CCOC2c1ccccc1)N1CC(F)(F)C1 (racemic) [Example 5, (3,3-difluoroazetidin-1-yl)-(8-phenyl-6,8-dihydro-5H-[1,2,4]triazolo[5,1-c][1,4]oxazin-2-yl)methanone] | 6.11
5 | O=C(c1nc2n(n1)CCOC2c1ccccc1F)N1CC(F)(F)C1 (racemic) [Example 6, (3,3-difluoroazetidin-1-yl)-[8-(2-fluorophenyl)-6,8-dihydro-5H-[1,2,4]triazolo[5,1-c][1,4]oxazin-2-yl]methanone] | 6.14
6 | CC(F)(F)C1CCc2nc(C(=O)N3CC(F)(F)C3)nn21 (racemic) [Example 8, (3,3-difluoroazetidin-1-yl)-[5-(1,1-difluoroethyl)-6,7-dihydro-5H-pyrrolo[1,2-b][1,2,4]triazol-2-yl]methanone] | 5.06
7 | O=C(c1cc2n(n1)CCOC2c1ccccc1)N1CC(F)(F)C1 (racemic) [Example 13, (3,3-difluoroazetidin-1-yl)-(4-phenyl-6,7-dihydro-4H-pyrazolo[5,1-c][1,4]oxazin-2-yl)methanone] | 5.95
8 | O=C(c1nc2n(n1)C(c1ccccc1)CC2)N1CC(F)(F)C1 (racemic) [Example 16, (3,3-difluoroazetidin-1-yl)-(5-phenyl-6,7-dihydro-H-pyrrolo[1,2-b][1,2,4]triazol-2-yl)methanone] | 6.98
9 | COC1CN(C(=O)c2nc3n(n2)C(c2ccccc2)CC3)C1 (racemic) [Example 17, (3-methoxyazetidin-1-yl)-(5-phenyl-6,7-dihydro-5H-pyrrolo[1,2-b][1,2,4]triazol-2-yl)methanone] | 5.86
10 | O=C(c1nc2n(n1)C(c1ccccc1)CC2)N1CC(F)C1 (racemic) [Example 18, (3-fluoroazetidin-1-yl)-(5-phenyl-6,7-dihydro-5H-pyrrolo[1,2-b][1,2,4]triazol-2-yl)methanone] | 6.46
11 | CC1CN(C(=O)c2nc3n(n2)C(c2ccccc2)CC3)C1 (racemic) [Example 19, (3-methylazetidin-1-yl)-(5-phenyl-6,7-dihydro-5H-pyrrolo[1,2-b][1,2,4]triazol-2-yl)methanone] | 6.33
12 | CC1(F)CN(C(=O)c2nc3n(n2)C(c2ccccc2)CC3)C1 (racemic) [Example 20, (3-fluoro-3-methyl-azetidin-1-yl)-(5-phenyl-6,7-dihydro-5H-pyrrolo[1,2-b][1,2,4]triazol-2-yl)methanone] | 6.57
13 | CCC1CN(C(=O)c2nc3n(n2)C(c2ccccc2)CC3)C1 (racemic) [Example 21, (3-ethylazetidin-1-yl)-(5-phenyl-6,7-dihydro-5H-pyrrolo[1,2-b][1,2,4]triazol-2-yl)methanone] | 5.87
14 | O=C(c1nc2n(n1)C(c1ccccc1F)CC2)N1CCC1 (racemic) [Example 22, Azetidin-1-yl-[5-(2-fluorophenyl)-6,7-dihydro-5H-pyrrolo[1,2-b][1,2,4]triazol-2-yl]methanone] | 6.29
15 | O=C(c1nc2n(n1)C(c1ccccc1F)CC2)N1CC(F)(F)C1 (racemic) [Example 23, (3,3-difluroroazetidin-1-yl)-[5-(2-fluorophenyl)-6,7-dihydro-5H-pyrrolo[1,2-b][1,2,4]triazol-2-yl]methanone] | 7.36
16 | O=C(c1nc2n(n1)C(c1ccccc1F)CC2)N1CC(F)C1 (racemic) [Example 24, (3-fluoroazetidin-1-yl)-[5-(2-fluorophenyl)-6,7-dihydro-5H-pyrrolo[1,2-b][1,2,4]triazol-2-yl]methanone] | 6.71
17 | CNC(=O)c1nc2n(n1)C(c1ccccc1)CC2 (racemic) [Example 25, N-methyl-5-phenyl-6,7-dihydro-5H-pyrrolo[1,2-b][1,2,4]triazole-2-carboxamide] | 5.44
18 | O=C(c1nc2n(n1)C(c1ccccc1)CC2)N1CCC1 (racemic) [Example 26, azetidin-1-yl-(5-phenyl-6,7-dihydro-5H-pyrrolo[1,2-b][1.2.4]triazol-2-yl)methanone] | 6.28
19 | CN(C)C(=O)c1nc2n(n1)C(c1ccccc1)CC2 (racemic) [Example 27, N,N-dimethyl-5-phenyl-6,7-dihydro-5H-pyrrolo[1,2-b][1,2,4]triazole-2-carboxamide] | 5.66

Row | Structure (SMILES) | pKi
20 | O=C(c1nc2n(n1)C(c1ccccc1)CC2)N1CC2CC1C2 (racemic) [Example 28, 2-azabicyclo[2.1.1]hexan-2-yl-(5-phenyl-6,7-dihydro-5H-pyrrolo[1,2-b][1,2,4]triazol-2-yl)methanone] | 5.05
21 | O=C(c1nc2n(n1)C(c1ccccc1)CC2)N1CCCCC1 (racemic) [Example 29, (5-phenyl-6,7-dihydro-5H-pyrrolo[1,2-b][1,2,4]triazol-2-yl)-(1-piperidyl)methanone] | 5.27
22 | O=C(c1nc2n(n1)C(c1ccccc1)CC2)N1CCCC1 (racemic) [Example 30, (5-phenyl-6,7-dihydro-5H-pyrrolo[1,2-b][1,2,4]triazol-2-yl)-pyrrolidin-1-yl-methanone] | 5.19
23 | CN(C)C(=O)c1nc2n(n1)C(c1ccccc1F)CC2 (racemic) [Example 33] | 5.85
24 | O=C(c1nc2n(n1)C(c1ccccc1F)CC2)N1CCCC1 (racemic) [Example 34] | 5.47
25 | O=C(c1nc2n(n1)[C@H](c1ccccc1)C[C@H]2F)N1CC(F)C1 (racemic) [Example 35] | 5.89
26 | O=C(c1cc2n(n1)CCOC2c1ccccc1F)N1CC(F)(F)C1 (racemic) [Example 37, (3,3-difluoroazetidin-1-yl)-[4-(2-fluorophenyl)-6,7-dihydro-4H-pyrazolo[5,1-c][1,4]oxazin-2-yl]methanone] | 5.85
27 | O=C(c1nc2n(n1)[C@@H](c1ccccc1)C[C@H]2F)N1CC(F)C1 (racemic) [Example 39] | 7.49
28 | CCC(F)(F)C1CCc2nc(C(=O)N3CC(F)(F)C3)nn21 (racemic) [Example 40, (3,3-difluoroazetidin-1-yl)-[5-(1,1-difluoropropyl)-6,7-dihydro-5H-pyrrolo[1,2-b][1,2,4]triazol-2-yl]methanone] | 6.04
29 | CN(C)C(=O)c1nc2n(n1)CCOC2c1ccccc1 (racemic) [Example 41, N,N-dimethyl-8-phenyl-6,8-dihydro-5H-[1,2,4]triazolo[5,1-c][1,4]oxazine-2-carboxamide] | 5.10
30 | CN(C)C(=O)c1nc2n(n1)CCOC2c1ccccc1F (racemic) [Example 43, 8-(2-fluorophenyl)-N,N-dimethyl-6,8-dihydro-5H-[1,2,4]triazolo[5,1-c][1,4]oxazine-2-carboxamide] | 5.30
31 | CCN(CC)C(=O)c1nc2n(n1)CCOC2c1ccccc1F (racemic) [Example 44, N,N-diethyl-8-(2-fluorophenyl)-6,8-dihydro-5H-[1,2,4]triazolo[5,1-c][1,4]oxazine-2-carboxamide] | 5.32
32 | O=C(c1nc2n(n1)CCOC2c1ccccc1F)N1CC(F)C1 (racemic) [Example 45, (3-fluoroazetidin-1-yl)-[8-(2-fluorophenyl)-6,8-dihydro-5H-[1,2,4]triazolo[5,1-c][1,4]oxazin-2-yl]methanone] | 5.64
33 | O=C(c1nc2n(n1)C(c1ccccc1)C1CC21)N1CC(F)C1 (racemic) [Example 46] | 6.04
34 | O=C(c1nc2n(n1)C(c1ccccc1)C1CC21)N1CC(F)(F)C1 (racemic) [Example 47] | 6.71
35 | O=C(c1nc2n(n1)[C@H](C(F)(F)F)CC2)N1CC(F)(F)C1 (racemic) [Example 49, (3,3-difluoroazetidin-1-yl)-[rac-(5S)-5-(trifluoromethyl)-6,7-dihydro-5H-pyrrolo[1,2-b][1,2,4]triazol-2-yl]methanone] | 5.30
36 | O=C(c1nc2n(n1)[C@H](c1ccccc1)C[C@@H]2F)N1CC(C(F)(F)F)C1 (racemic) [Example 50, [rac-(5S,7S)-7-fluoro-5-phenyl-6,7-dihydro-5H-pyrrolo[1,2-b][1,2,4]triazol-2-yl]-[3-(trifluoromethyl)azetidin-1-yl]methanone] | 5.80
37 | O=C(c1nc2n(n1)[C@H](c1ccccc1)C[C@@H]2F)N1CC(C(F)F)C1 (racemic) [Example 51, [3-(difluoromethyl)azetidin-1-yl]-[rac-(5S, 7S)-7-fluoro-5-phenyl-6,7-dihydro-5H-pyrrolo[1,2-b][1,2,4]triazol-2-yl]methanone] | 7.00
